Source: patent US12090164B2, “Genotype-agnostic rescue of cystic fibrosis with small molecule bicarbonate channels” (The Board of Trustees of the University of Illinois, priority 2017, dated 2024)
Entries after “also recorded” stand apart in the source; their conditions may differ.

Columns and labels:
[1] = aerosolized NaHCO3; cited from earlier work
CuFi-1 epithelia = experiment: ASL height by confocal microscopy; format: cell-based, human
Experimental: (§1) ASL height was studied using an established fluorescent dye assay (60, 61). Small diameter NuLi and CuFi-1 cultured epithelia were used for this experiment (0.33 cm^2). 24 hours prior to the start of experiment, the apical side of all cultured epithelia was rinsed three times with warm PBS to remove excess mucus. NuLi epithelia were treated with perfluorocarbon (FC-72) vehicle or 500 µM basolateral bumetanide in DMSO vehicle applied to the media, and CuFi epithelia were treated with 20 μL vehicle, 0.005, 0.5, or 50 μM AmB, or 0.5 μM C35deOAmB suspended in perfluorocarbon (FC-72, Sigma), with or without 500 μM basolateral bumetanide in DMSO vehicle applied to the media and incubated for 24 hours at 37° C. After 24 hours, 2.5 μL of a 2 mg/mL 70 kDa Texas Red-dextran conjugate (Molecular Probes) solution in PBS was added to the apical side of the epithelia, followed by 100 μL of FC-770 to prevent evaporation. Then the culture support was placed on top of 100 μL of PBS on a 10 mm glass bottom Fluorodish for imaging (World Precision Instruments). Epithelia were imaged immediately after dye addition and again at 24 hours to examine dye absorption. Three Z-stack images per membrane were taken on an Zeiss LSM700 confocal microscope at 40× oil immersion. These images were analyzed using ImageJ (62) to determine the average ASL height in the center 1300 pixels of each image. Images were smoothed, converted to 8-bit, and thresholded to most accurately represent the red area. The parameters for Analyze Particles were particles from 1-Infinity μm^2 in size and from 0%-100% circularity. Height was determined by dividing the area output in pixels by the known 1300 pixel width and converted to microns using the known scaling factor of 0.49 µm/pixel.

NuLi epithelia = experiment: ASL height by confocal microscopy; format: cell-based, human; settings: bumetanide 500 μM
Experimental: as §1

[2] = system: CuFi-1 (ΔF508/ΔF508) epithelia; experiment: ASL pH in cultured CF airway epithelia (SNARF-dextran); format: cell-based, human; settings: for ASL pH, apical addition: AmB or C35deOAmB 2 μM, ivacaftor/forskolin 10 μM, 2 h, vs vehicle
Experimental: (§2) Small diameter NuLi, CuFi, and primary cultured epithelia were used for this experiment (0.33 cm^2). The ratiometric pH indicator SNARF-conjugated dextran (Molecular Probes) was used to measure ASL pH. SNARF powder was suspended via sonication in perfluorocarbon (FC-72, Sigma) and distributed onto the apical surface. ASL pH was measured 2 hr later (3, 4, 25). SNARF was excited at 488 nm and emission was recorded at 580 nm and 640 nm using a Zeiss LSM 800 microscope at 40× water immersion for cell line cultures and a Zeiss LSM 510 microscope for primary cultures. To generate a standard curve for pH determination, SNARF was dissolved in colorless pH standards and fluorescence ratios were converted to pH.
(§3) Agents tested in this assay were first lyophilized into powder and then suspended in the appropriate volume of perfluorocarbon (FC-72, Sigma) and sonicated for 1 minute to suspend. AmBisome should not be sonicated; instead, the fine powder was suspended by vortexing.
(§4) In all experiments, ASL pH of compound-treated epithelia was measured compared the results to vehicle-treated epithelia.
(§5) For apical AmB administration, cultured airway epithelia were incubated for 30 min-48 hrs at 37° C. before measurement of ASL pH. For AmB-cholesterol complex and C35deOAmB administration, cultured airway epithelia were incubated for 48 hrs at 37° C. before measurement of ASL pH. To test the effect of […] ATPase inhibition, AmB was administered 47 hours prior to 10 mM ouabain addition, and cultured airway epithelia were incubated for an additional 1 hr at 37° C. before measurement of ASL pH. For 10 μM ivacaftor/10 μM forskolin administration, cultured airway epithelia were incubated for 2 hrs at 37° C. before measurement of ASL pH (25). For basolateral AmB administration, a 2 mM stock of AmB in DMSO was diluted 1000-fold to a final concentration of 2 μM in USG media. The basolateral media of cultured airway epithelia was replaced with the AmB-containing USG media and incubated for 48 hrs at 37° C. before measurement of ASL pH.

[3] = system: CuFi-4 (G551D/ΔF508) epithelia; experiment: as above; format: cell-based, human
Experimental: as §2, §3, §4, §5

[4] = system: CuFi-1 (ΔF508/ΔF508) epithelia; experiment: Basolateral to apical H14CO3- transport; format: cell-based, human; settings: for basolateral to apical H^14CO3^− transport, apical addition: over 10 minutes, AmB or C35deOAmB 2 μM, ivacaftor/forskolin 10 μM
Experimental: (§6) Small diameter NuLi and CuFi cultured epithelia were used for this experiment (0.33 cm^2). ^14C-labeled sodium HCO3^− was obtained as a sterile 35.7 mM aqueous solution pH 9.5 (MP Biomedicals 0117441H). All experiments were run less than 2 months post seeding. Fresh USG media was added to the basolateral side prior to experimentation. The apical membrane was treated with 20 μL of vehicle, AmB, or ivacaftor/forskolin as a suspension in perfluorocarbon-72 (Sigma Aldrich), and the cultured epithelia were incubated for 48 hours, 7 days, 14 days, or 28 days at 37° C. in a 5% C02 atmosphere. After the end of the treatment period, 5 μL of a 1.4 mM H^14CO3^− stock solution in USG media was added to the basolateral media. The cultured epithelia were then incubated at 37° C. for 10 minutes. After 10 minutes, the apical membrane of the cultured epithelia was immediately washed with 200 μL of PBS. The ASL wash and a 200 μL aliquot of the basolateral media were diluted in scintillation cocktail and analyzed via liquid scintillation counting (23).

[5] = system: CuFi-4 (G551D/ΔF508) epithelia; experiment: Basolateral to apical H14CO3- transport; format: cell-based, human; settings: AmB 2 μM, ivacaftor/forskolin 10 μM
Experimental: as §6

[6] = system: primary sinonasal epithelia from a patient with a G551D mutation; settings: relative to untreated controls; cited from earlier work
[7] = system: CF patients having at least one G551D allele; settings: clinical trials; cited from earlier work
V520F allele = V520F allele (Homo sapiens, UniProt P13569, V520F); settings: V520F allele (D259G/V520F); cited from earlier work
Sequence of V520F allele (P13569 whole entry V520F): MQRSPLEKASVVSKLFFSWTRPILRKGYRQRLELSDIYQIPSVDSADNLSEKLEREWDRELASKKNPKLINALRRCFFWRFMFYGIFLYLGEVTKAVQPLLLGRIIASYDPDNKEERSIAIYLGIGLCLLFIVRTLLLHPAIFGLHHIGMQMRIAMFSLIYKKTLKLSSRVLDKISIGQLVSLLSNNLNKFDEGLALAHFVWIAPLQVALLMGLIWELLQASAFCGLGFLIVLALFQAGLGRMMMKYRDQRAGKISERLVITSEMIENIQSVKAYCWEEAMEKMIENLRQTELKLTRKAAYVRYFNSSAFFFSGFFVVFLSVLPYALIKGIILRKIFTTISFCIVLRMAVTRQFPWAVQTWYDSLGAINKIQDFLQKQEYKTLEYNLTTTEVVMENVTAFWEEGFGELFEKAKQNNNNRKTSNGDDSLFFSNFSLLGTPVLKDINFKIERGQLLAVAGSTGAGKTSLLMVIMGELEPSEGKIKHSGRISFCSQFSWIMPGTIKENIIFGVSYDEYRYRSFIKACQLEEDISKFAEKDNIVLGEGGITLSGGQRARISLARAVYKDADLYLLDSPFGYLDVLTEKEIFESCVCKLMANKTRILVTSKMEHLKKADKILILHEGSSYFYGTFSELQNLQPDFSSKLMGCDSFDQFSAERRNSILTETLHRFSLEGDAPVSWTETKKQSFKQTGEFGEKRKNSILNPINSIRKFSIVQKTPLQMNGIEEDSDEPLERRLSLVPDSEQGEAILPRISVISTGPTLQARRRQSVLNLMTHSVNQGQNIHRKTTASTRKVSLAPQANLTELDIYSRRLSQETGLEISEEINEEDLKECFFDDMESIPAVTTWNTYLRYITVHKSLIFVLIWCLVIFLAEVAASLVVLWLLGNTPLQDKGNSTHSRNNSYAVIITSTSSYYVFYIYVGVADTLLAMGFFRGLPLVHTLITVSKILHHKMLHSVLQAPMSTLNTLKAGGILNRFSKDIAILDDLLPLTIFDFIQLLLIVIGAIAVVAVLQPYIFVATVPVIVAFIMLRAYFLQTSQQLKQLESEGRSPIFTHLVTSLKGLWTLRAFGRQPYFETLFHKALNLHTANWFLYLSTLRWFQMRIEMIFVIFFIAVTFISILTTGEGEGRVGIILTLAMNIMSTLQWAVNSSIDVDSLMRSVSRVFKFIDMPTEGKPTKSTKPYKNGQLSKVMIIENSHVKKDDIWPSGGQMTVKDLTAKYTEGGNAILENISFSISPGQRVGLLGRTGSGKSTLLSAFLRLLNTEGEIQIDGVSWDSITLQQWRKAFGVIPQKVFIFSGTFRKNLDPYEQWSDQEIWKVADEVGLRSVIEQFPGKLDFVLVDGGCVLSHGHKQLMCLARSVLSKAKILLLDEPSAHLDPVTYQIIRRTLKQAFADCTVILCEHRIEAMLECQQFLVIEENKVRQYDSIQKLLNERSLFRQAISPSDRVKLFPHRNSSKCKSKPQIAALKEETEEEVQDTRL

[8] = system: CF epithelia that lack a G551D or similar allele; settings: cited from earlier work
[9] = system: CuFi-1 (ΔF508/ΔF508) airway epithelia; experiment: Ussing chamber permeabilization of differentiated CF airway epithelia; format: cell-based, human; settings: differentiated CuFi-1 epithelia
Experimental: A series of natural products and synthetic compounds reported previously to permeabilize liposomes, cells, and/or nasal epithelia of mice to anions (11-14) were tested using an Ussing chamber and differentiated cultures of airway epithelia derived from an immortalized airway epithelial cell line from a CF patient having the most common ΔF508/ΔF508 genotype (CuFi-1) (15). […] The capacity for AmB and C35deOAmB to transport bicarbonate across cholesterol-containing POPC liposomes was tested using an adapted ^13C NMR-based assay (18).

[10] = system: primary cultured airway epithelia derived from humans with CF; experiment: ASL pH in primary cultured airway epithelia from CF donors; format: cell-based, human; settings: 9 donors, 2 μM, 48 h
Experimental: Airway epithelial cells were obtained from human trachea and bronchi of CF and non-CF specimens obtained from the Iowa Donor Network, either as post-mortem specimens or from tissue deemed not fit for transplant. Studies were approved by the University of Iowa Institutional Review Board. After pronase enzymatic digestion, cells were seeded onto collagen-coated semi-permeable membranes (0.33-1.12 cm^2, Corning 3470 polyester, 3460 polyester, 3413 polycarbonate) and grown at an air-liquid interface (52). Airway epithelial cell cultures were analyzed after they had differentiated and at least 14 days post-seeding.
as §2, §3, §4, §5

[11] = system: ASL of primary CF epithelia; Staphylococcus aureus killed; experiment: ASL antibacterial activity (S. aureus-coated gold grids); format: cell-based, human; settings: 2 μM, 48 h
Experimental: Staphylococcus aureus-coated gold grids were used to measure antibacterial activity of airway epithelial cultures (3, 4). Small diameter primary cultured epithelia were used for this experiment (0.33 cm^2). Bacteria-coated gold TEM grids were placed onto the apical surface of airway epithelia for 1 min after 48 hours of perfluorocarbon (FC-72, Sigma), 2 μM AmB, or 2 μM C35deOAmB treatment. As controls, bacteria-coated grids were also placed in saline or AmB in FC-72 laid over saline to simulate the administration method for 1 minute. After removal, bacteria on the grids were assessed for viability using Live/Dead BacLight Bacterial Viability assay (Invitrogen). Viability was determined in 4-6 fields to determine the percentages of dead bacteria.

[12] = system: protein ion channel-deficient yeast; settings: cited from earlier work
yeast = settings: cited from earlier work

O=C([O-])O.[Na+] [NaHCO3]
duration of transient increase in pH [1]: ~15 minutes

CCCCNc1cc(C(=O)O)cc(S(N)(=O)=O)c1Oc1ccccc1 [bumetanide]
effect of basolateral bumetanide on AmB-mediated increase in ASL height (CuFi-1 epithelia; bumetanide 500 μM): abolished the AmB-mediated increase in ASL height | ASL height after basolateral bumetanide (NuLi epithelia): decreased ASL height in NuLi epithelia

CC(C)(C)c1cc(C(C)(C)C)c(NC(=O)c2c[nH]c3ccccc3c2=O)cc1O [ivacaftor]
ASL pH, apical addition [2]: showed no increase in ASL pH | ASL pH, apical addition ([2]; listed as Ivacaftor): failed to increase ASL pH or H^14CO3^− secretion | ASL pH, apical addition ([2]; listed as ivacaftor/forskolin): an increase in ASL pH was not observed | increase in ASL pH ([3]; AmB 2 μM, ivacaftor/forskolin 10 μM): 0.2 unit | ASL pH ([3]; apical AmB 2 μM 48 h, ivacaftor/forskolin 10 μM 2 h): increase ASL pH | basolateral to apical H^14CO3^− transport, apical addition ([4]; listed as Ivacaftor): failed to increase ASL pH or H^14CO3^− secretion | basolateral to apical H^14CO3^− transport, apical addition ([4]; listed as ivacaftor/forskolin): did not | H^14CO3^− transepithelial transport [5]: increased the rate of bicarbonate efflux | H^14CO3^− transepithelial transport ([5]; listed as ivacaftor/forskolin): increase H^14CO3-transepithelial transport | decrease in viscosity [6]: about 1.5 units | increase in ASL pH [6]: 0.20 units | increase in forced expiratory volume [7]: 10% | other clinical outcomes [7]: substantially improved body weight, quality of life, and incidence of pulmonary exacerbation; also recorded: improved FEV1 | response to ivacaftor (V520F allele): refractory to treatment with ivacaftor | benefit in CF epithelia without G551D [8]: does not show benefit in CF epithelia that lack a G551D or similar allele

C[C@@H]1O[C@@H](O[C@H]2C[C@@H](O)[C@]3(CO)[C@H]4[C@H](O)C[C@]5(C)[C@@H](C6=CC(=O)OC6)CC[C@]5(O)[C@@H]4CC[C@]3(O)C2)[C@H](O)[C@H](O)[C@H]1O [ouabain]
effect of basolateral ouabain on AmB-mediated increase in ASL pH ([2]; AmB 2 μM 48 h, ouabain 10 mM): abrogated; also recorded: abolished | effect of basolateral ouabain on AmB-mediated increase in H^14CO3^− transport ([4]; AmB 2 μM, ouabain 10 mM): abrogated; also recorded: abolished

C35-deoxyamphotericin B [C35deOAmB]
change in short circuit current / permeabilization of epithelia [9]: Little or no permeabilization | ASL pH, apical addition [2]: an increase in ASL pH was not observed; also recorded: No increase in pH was observed; also recorded: did not raise ASL pH or increase H^14CO3^− secretion | basolateral to apical H^14CO3^− transport, apical addition [4]: did not; also recorded: caused no increase ASL ^14C bicarbonate; also recorded: did not raise ASL pH or increase H^14CO3^− secretion | ASL pH, apical addition [10]: did not increase ASL pH | ASL antibacterial activity (% of S. aureus killed after exposure to ASL) [11]: had no effect | ASL height, apical addition (CuFi-1 epithelia; 0.5 μM): did not increase ASL height | yeast growth rescue [12]: failed to rescue yeast growth at any tested concentration; also recorded: did not | toxicity / fungicidal activity to yeast (yeast): still maintains potent fungicidal activity
